This note sets out measurements from ChEMBL document CHEMBL5053500, “Nitric Oxide Induction in Peritoneal Macrophages by a 1,2,3-Triazole Derivative Improves Its Efficacy upon Leishmania amazonensis In Vitro Infection” (J Med Chem, 2021).

Calls of active or inactive are those of the source. The calls are words filed in the database; no cut-off is given here.

Data set [1] concerns Leishmania amazonensis. Description: Antileishmanial activity against Leishmania amazonensis (MHOM/BR/76/MA-76) intracellular amastigotes infected in BALB/c mouse peritoneal macrophages assessed as percentage of infected cells at 15.52 uM measured after 24 hrs by Giemsa's azur-eosin-methylene blue staining based light microscopy analysis. Type of data set: functional, Peritoneal macrophage.

The test system of data set [2] is Leishmania amazonensis. Kind of data set: Antileishmanial activity against Leishmania amazonensis (MHOM/BR/76/MA-76) promastigotes assessed as upward shift in concentration response curves of parasite viability incubated for 24 hrs by MTT assay. Type of data set: functional, organism-based. (Tetrazolium assays rely on reduction of a dye to a coloured formazan, in cell work by metabolically active cells.)

The subject of data set [3] is Leishmania amazonensis. Kind of data set: Induction of morphological changes in Leishmania amazonensis (MHOM/BR/76/MA-76) promastigotes assessed as lipid inclusions at IC50 incubated for 24 hrs by transmission electron microscopy analysis. Type of data set: functional, organism-based.
In data set [4] the test system is Leishmania amazonensis. Description: Antileishmanial activity against Leishmania amazonensis (MHOM/BR/76/MA-76) intracellular amastigotes infected in BALB/c mouse peritoneal macrophages assessed as low amastigote mean at 5 to 40 uM incubated for 24 hrs by Giemsa's azur-eosin-methyle blue staining based light microscopy analysis. In kind it is functional, organism-based. The settings on record: Peritoneal macrophage, dose 5-40 µM.

Data set [5] relates to Peritoneal macrophage. Kind of data set: Induction of NO production in BALB/C mouse peritoneal macrophages assessed as nitrite levels at 50 uM measured after 48 hrs by Griess reagent based assay (Rvb= 3.22 +/- 0.570 uM). In kind it is functional.
Data set [6] relates to Peritoneal macrophage. Kind of data set: Cytotoxicity against BALB/C mouse peritoneal macrophages assessed as reduction in cell viability at 100 uM measured after 24 hrs by MTT assay relative to control. Type of data set: cell-based.
Data set [7] is described as follows: Selectivity ratio of IC50 for antileishmanial activity against Leishmania amazonensis (MHOM/BR/76/MA-76) promastigotes to IC50 for antileishmanial activity against Leishmania amazonensis (MHOM/BR/76/MA-76) intracellular amastigotes infected in BALB/c mouse peritoneal macrophages. In kind it is functional.
Data set [8] concerns Peritoneal macrophage. Kind of data set: Induction of NO production in BALB/C mouse peritoneal macrophages infected with Leishmania amazonensis assessed as nitrite levels at 50 uM measured after 48 hrs by Griess reagent based assay (Rvb= 4.11 +/- 0.156 uM). In kind it is functional.
Data set [9] has as its system Leishmania amazonensis. Description: Antileishmanial activity against Leishmania amazonensis (MHOM/BR/76/MA-76) intracellular amastigotes infected in BALB/c mouse peritoneal macrophages assessed as number of amastigotes per cell at 15.52 uM pretreated with 1400W for 1 hr followed by test compound addition measured after 24 hrs by Giemsa's azur-eosin-methylene blue staining based light microscopy analysis. In kind it is functional, Peritoneal macrophage.

The subject of data set [10] is Leishmania amazonensis. Description: Antileishmanial activity against Leishmania amazonensis (MHOM/BR/76/MA-76) intracellular amastigotes infected in BALB/c mouse peritoneal macrophages assessed as upward shift in concentration response curves of parasite viability incubated for 24 hrs by Giemsa's azur-eosin-methyle blue staining based light microscopy analysis. Type of data set: functional, organism-based. The settings on record: Peritoneal macrophage.

In data set [11] the test system is Peritoneal macrophage. Description: Upregulation of IL-1beta mRNA expression in BALB/c mouse peritoneal macrophages stimulated with Leishmania amazonensis at 50 uM measured after 48 hrs by qRT-PCR analysis. Type of data set: functional, tissue-based. (Real-time PCR tracks product formation cycle by cycle.)
Data set [12] can be described thus: Inhibition of iNOS expression in BALB/C mouse peritoneal macrophages stimulated with Leishmania amazonensis assessed as decrease in nitrite levels at 50 uM pretreated with 1400W for 1 hr followed by parasite stimulation and measured after 48 hrs by Griess reagent based assay (Rvb= 2.60 +/- -.236 uM). Type of data set: functional, Peritoneal macrophage. On the technique in general: Nitrite, measured by Griess reagent, commonly stands in for NO production.

A short description of data set [13]: Upregulation of iNOS mRNA expression in BALB/c mouse peritoneal macrophages stimulated with Leishmania amazonensis at 50 uM measured after 48 hrs by qRT-PCR analysis. Type of data set: functional, Peritoneal macrophage.
The subject of data set [14] is Peritoneal macrophage. Kind of data set: Induction of NO production in BALB/C mouse peritoneal macrophages assessed as nitrite levels at 100 uM measured after 48 hrs by Griess reagent based assay (Rvb= 3.22 +/- 0.570 uM). In kind it is functional.
Data set [15] in a line: Cytotoxicity against BALB/c mouse peritoneal macrophages assessed as reduction in cell viability incubated for 24 hrs by MTT assay. Type of data set: cell-based, Peritoneal macrophage.
Data set [16] concerns Leishmania amazonensis. Kind of data set: Antileishmanial activity against Leishmania amazonensis (MHOM/BR/76/MA-76) intracellular amastigotes infected in BALB/c mouse peritoneal macrophages assessed as reduction in parasite growth incubated for 24 hrs by Giemsa's azur-eosin-methyle blue staining based light microscopy analysis. Type of data set: functional, organism-based. The settings on record: MHOM/BR/76/MA-76, Peritoneal macrophage.

Data set [17] can be described thus: Upregulation of iNOS mRNA expression in BALB/c mouse peritoneal macrophages at 50 uM measured after 48 hrs by qRT-PCR analysis relative to control. In kind it is functional, Peritoneal macrophage.
The test system of data set [18] is Peritoneal macrophage. Kind of data set: Upregulation of IL-12 mRNA expression in BALB/c mouse peritoneal macrophages stimulated with Leishmania amazonensis at 50 uM measured after 48 hrs by qRT-PCR analysis. In kind it is functional, tissue-based.
Data set [19] has as its system Leishmania amazonensis. Kind of data set: Induction of morphological changes in Leishmania amazonensis (MHOM/BR/76/MA-76) promastigotes assessed as formation of membrane profiles near the flagellar pocket at IC50 incubated for 24 hrs by transmission electron microscopy analysis. Type of data set: functional, organism-based.
Data set [20] concerns Leishmania amazonensis. Description: Antileishmanial activity against Leishmania amazonensis (MHOM/BR/76/MA-76) intracellular amastigotes infected in BALB/c mouse peritoneal macrophages assessed as percentage of infected cells at 15.52 uM pretreated with 1400W for 1 hr followed by test compound addition measured after 24 hrs by Giemsa's azur-eosin-methylene blue staining based light microscopy analysis. In kind it is functional, Peritoneal macrophage.

Data set [21] concerns Leishmania amazonensis. Description: Antileishmanial activity against Leishmania amazonensis (MHOM/BR/76/MA-76) intracellular amastigotes infected in BALB/c mouse peritoneal macrophages assessed as decrease in number of amastigotes per 100 cells at 10 to 40 uM incubated for 24 hrs by Giemsa's azur-eosin-methyle blue staining based light microscopy analysis. Type of data set: functional, organism-based. The conditions noted are these: Peritoneal macrophage, dose 10-40 µM.

The nature of data set [22]: Selectivity index, ratio of CC50 for cytotoxicity against BALB/c mouse peritoneal macrophages to IC50 for antileishmanial activity against Leishmania amazonensis (MHOM/BR/76/MA-76) promastigotes. In kind it is toxicity. The settings on record: read-out: Ratio CC50/IC50.
Data set [23] can be described thus: Inhibition of iNOS expression in BALB/c mouse peritoneal macrophages assessed as decrease in LPS induced nitrite levels at 50 uM pretreated with 1400W for 1 hr followed by LPS stimulation further treated with test compound and measured after 48 hrs by Griess reagent based assay (Rvb= 4.27 +/- 0.432 uM). In kind it is functional, Peritoneal macrophage.
Data set [24] concerns Leishmania amazonensis. Description: Induction of morphological changes in Leishmania amazonensis (MHOM/BR/76/MA-76) promastigotes assessed as kinetoplast swelling at IC50 incubated for 24 hrs by transmission electron microscopy analysis. In kind it is functional, organism-based.
For data set [25], the system named is Leishmania amazonensis. Description: Antileishmanial activity against Leishmania amazonensis (MHOM/BR/76/MA-76) intracellular amastigotes infected in BALB/c mouse peritoneal macrophages assessed as number of amastigotes per cell at 15.52 uM measured after 24 hrs by Giemsa's azur-eosin-methylene blue staining based light microscopy analysis. In kind it is functional, Peritoneal macrophage.

Data set [26] concerns Peritoneal macrophage. Description: Upregulation of IL-10 mRNA expression in BALB/c mouse peritoneal macrophages stimulated with Leishmania amazonensis at 50 uM measured after 48 hrs by qRT-PCR analysis. Type of data set: functional, tissue-based.
The subject of data set [27] is Leishmania amazonensis. Kind of data set: Antileishmanial activity against Leishmania amazonensis (MHOM/BR/76/MA-76) intracellular amastigotes infected in BALB/c mouse peritoneal macrophages assessed as number of amastigotes per 100 cells at 15.52 uM measured after 24 hrs by Giemsa's azur-eosin-methylene blue staining based light microscopy analysis. In kind it is functional, Peritoneal macrophage.

Data set [28] has as its system Leishmania amazonensis. Description: Antileishmanial activity against Leishmania amazonensis (MHOM/BR/76/MA-76) promastigotes assessed as reduction in parasite growth incubated for 24 hrs by MTT assay. In kind it is functional, organism-based. The settings on record: MHOM/BR/76/MA-76, 24 h.
For data set [29], the system named is Peritoneal macrophage. Description: Upregulation of TNF-alpha mRNA expression in BALB/c mouse peritoneal macrophages stimulated with Leishmania amazonensis at 50 uM measured after 48 hrs by qRT-PCR analysis. Type of data set: functional, tissue-based.
The subject of data set [30] is Leishmania amazonensis. Description: Induction of morphological changes in Leishmania amazonensis (MHOM/BR/76/MA-76) promastigotes assessed as formation of small vesicles surrounded by a membrane in cytoplasm at IC50 incubated for 24 hrs by transmission electron microscopy analysis. In kind it is functional, organism-based.
For data set [31], the system named is Leishmania amazonensis. Kind of data set: Antileishmanial activity against Leishmania amazonensis (MHOM/BR/76/MA-76) intracellular amastigotes infected in BALB/c mouse peritoneal macrophages assessed as decrease in number of amastigotes per infected cells at 20 to 40 uM incubated for 24 hrs by Giemsa's azur-eosin-methyle blue staining based light microscopy analysis. In kind it is functional, organism-based. The conditions noted are these: Peritoneal macrophage, dose 20-40 µM.

A short description of data set [32]: Selectivity index, ratio of CC50 for cytotoxicity against BALB/c mouse peritoneal macrophage to IC50 for antileishmanial activity against Leishmania amazonensis (MHOM/BR/76/MA-76) intracellular amastigotes infected in BALB/c mouse peritoneal macrophages. In kind it is toxicity, cell-based. The conditions noted are these: read-out: Ratio CC50/IC50.
The test system of data set [33] is Peritoneal macrophage. Description: Upregulation of IL-6 mRNA expression in BALB/c mouse peritoneal macrophages stimulated with Leishmania amazonensis at 50 uM measured after 48 hrs by qRT-PCR analysis. In kind it is functional, tissue-based.
The nature of data set [34]: Cytotoxicity against human CCD-1072Sk cells assessed as reduction in cell viability at <400 uM measured after 24 hrs by MTT assay. In kind it is cell-based.
Data set [35] deals with Leishmania amazonensis. Kind of data set: Antileishmanial activity against Leishmania amazonensis (MHOM/BR/76/MA-76) intracellular amastigotes infected in BALB/c mouse peritoneal macrophages assessed as number of amastigotes per 100 cells at 15.52 uM pretreated with 1400W for 1 hr followed by test compound addition measured after 24 hrs by Giemsa's azur-eosin-methylene blue staining based light microscopy analysis. Type of data set: functional, Peritoneal macrophage.

Data set [36] can be described thus: Inhibition of iNOS expression in BALB/c mouse peritoneal macrophages stimulated with Leishmania amazonensis assessed as decrease in nitrite levels at 200 nM pretreated for 1 hr followed by parasite stimulation and measured after 48 hrs by Griess reagent based assay. Type of data set: functional, Peritoneal macrophage. The settings on record: time 49 hrs.

A word on the CC50: it is the concentration at which the toxic effect on the cells reaches its halfway point. The term IC50 denotes the concentration that gives 50% inhibition. As for `OC(c1ccc(Br)cc1)c1cn(-c2ccc(Br)cc2)nn1` (stereo unspecified), the Activity was 55.6 in [1]; 4.63 µM in [5]; 65.79% in [6]; 9.37 µM in [8]; 3.68 in [9]; 3.06 µM in data set [12]. For the same compound, the Activity was 4.34 µM in data set [14]; 79.6 in data set [20]; 2.65 µM in data set [23]; 2.86 in data set [25]; 169.38 in data set [27]; “Non-Toxic” in [34]. Also, the Activity in data set [35] was determined as 288.25. The outcome in data set [2], in data set [3], in data set [4], in data set [10], in data set [11] and in data set [19] was Active. The outcome in data set [21], in data set [24], in data set [29], in data set [30] and in data set [31] was Active. For the same compound, in data set [7], the “Ratio IC50” value is listed as 3.7. For the same compound, the “fold change (FC)” value in [13] is given as 24.47; in data set [17] it was 12.28. Further, the CC50 at 24 h in [15] is 84 µM. For the same compound, the IC50 is 4.1 µM in [16] and 15.5 µM in data set [28]. Further, the result in [18], in data set [26] and in data set [33] was inactive. Further, the results for the selectivity ratio in [22] and in data set [32] were 5.41 and 20.5, respectively.

For the compound `CC(=N)NCc1cccc(CN)c1.Cl.Cl`, in data set [36], the Activity was 2.06 µM.
